Paper PMC4854315, “Discovery of a novel allosteric inhibitor-binding site in ERK5: comparison with the canonical kinase hinge ATP-binding site” (Acta Crystallographica. Section D, Structural Biology, 2016)

What was measured:
[1] = molecular target: T1, recombinant human ERK5 (Homo sapiens, UniProt Q13164); experiment: TR-FRET (LANCE Ultra) biochemical assay of ERK5 kinase activity; conditions: TR-FRET enzymatic assay, phosphorylated ERK5; read-out: ERK5 IC50
T1 construct: Catalytically active kinase domain of recombinant human ERK5 enzyme was purchased from Carna Biosciences; purchased Carna Biosciences
Procedure: Catalytically active kinase domain of recombinant human ERK5 enzyme was purchased from Carna Biosciences. […] The inhibitory potency of compounds against ERK5 was evaluated using the LANCE Ultra technology from PerkinElmer according to the manufacturer’s instructions. Briefly, 3 µl of different concentrations of ATP and 100 nM ULight-eIF4E-binding protein 1 (Thr37/46) peptide (Perkin-Elmer catalogue No. TRF0128) were incubated in the presence of serially diluted compound or DMSO control at room temperature in 384-well Greiner white polystyrene assay plates. The reaction was initiated by the addition of 3 µl of 10 nM kinase. The assay buffer consisted of 1 mM DTT, 10 mM MgCl2, 1 mM EGTA, 0.01%(v/v) Tween 20 in 50 mM HEPES pH 7.5. After 60 min incubation, the reaction was stopped by the addition of 6 µl stop/detection reagent mixture consisting of 20 mM EDTA and 4 nM Eu-anti-phospho-eIF4E-binding protein 1 (Thr37/46) antibody (PerkinElmer catalogue No. TRF0216) diluted in detection buffer. The plates were incubated for 1 h before the fluorescence was measured at 615 and 665 nm with an excitation wavelength of 320 nm using an EnVision Multilabel Reader from Perkin-Elmer in time-resolved fluorescence resonance energy transfer (TR-FRET) mode. The calculated signal ratio at 665/615 nm is proportional to the kinase activity. The concentration of compound producing 50% inhibition of the kinase activity (IC50) was calculated by using GraphPad Prism to fit the data to a symmetrical sigmoidal curve.

[2] = system: ERK5; parameters: method as in Deng et al., 2013; conditions: Data retrieved from the literature; ref Deng et al., 2013; cited from earlier work

T1 sequence (Q13164 55-347 limits assumed): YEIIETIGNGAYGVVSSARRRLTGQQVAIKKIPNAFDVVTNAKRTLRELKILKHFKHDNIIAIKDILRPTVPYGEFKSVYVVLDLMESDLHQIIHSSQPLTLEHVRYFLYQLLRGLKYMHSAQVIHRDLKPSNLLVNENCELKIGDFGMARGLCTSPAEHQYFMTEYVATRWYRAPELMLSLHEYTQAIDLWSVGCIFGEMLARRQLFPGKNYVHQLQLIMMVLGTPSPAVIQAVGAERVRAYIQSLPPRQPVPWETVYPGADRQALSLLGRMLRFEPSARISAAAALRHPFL

SMILES	IC50 [1]	IC50 [2]
CC(C)NC(=O)n1nc(N)nc1Nc1ccc(Cl)cc1 [Compound 4]	> 10 µM	
CC(NC(=O)n1nc(N)nc1Nc1ccc(Cl)cc1)c1ccccc1 (stereo not drawn) [Compound 6]	> 10 µM	
COc1cc(C(=O)N2CCC(N3CCN(C)CC3)CC2)ccc1Nc1ncc2c(n1)N(C1CCCC1)c1ccccc1C(=O)N2C [Compound 1]		0.082 µM
